Test results from US9708251B2, “Unsaturated fatty alcohol alkoxylates from natural oil metathesis” (Stepan Company, priority 2012, dated 2017).

Columns and labels:
Assay type in all cases: physicochemical
[1] = Emulsion stability testing of nonionic emulsifiers, Hallcomid solvent series; set-up: key to 24 h separation, appearance / 1 h separation, appearance / 1 h separation, amount: C = creamy; CO = creamy oil; O = oil; GC = gritty cream; NS = no separation; OC = oily cream; key to Spon. (spontaneity): G = good; F = fair; P = poor
Procedure: (§1) Nonionic samples contain a low amount of water (<1%) and are prepared as emulsifiable concentrates with three pesticides using two different solvent systems. In the aromatic solvent series, the nonionic sample replaces Toximul® 8240 (castor oil ethoxylate, 36 POE, Stepan), and in the Hallcomid™ (N,N-dimethylcaprylamide/N,N-dimethylcapramide, Stepan) solvent series, the nonionic sample replaces Ninex® MT-630F.
(§2) Hallcomid Solvent Series.
(§3) Sample preparation: The surfactants are combined and stirred until homogeneous, with the nonionic sample melted if needed prior to combination. Controls 1-3 are made by using Ninex MT-630F in the amounts indicated instead of the nonionic sample.
(§4) Emulsion Stability Testing
(§5) A Mohr pipette is used to feed pesticide/surfactant concentrates to each cylinder.

[2] = Emulsion stability testing of nonionic emulsifiers, aromatic solvent series; set-up: key to 24 h separation, appearance / 1 h separation, appearance / 1 h separation, amount: C = creamy; CO = creamy oil; O = oil; GC = gritty cream; NS = no separation; OC = oily cream; key to Spon. (spontaneity): G = good; F = fair; P = poor
Procedure: as §1
Sample preparation: Ninate® 60E (calcium alkylbenzenesulfonate, Stepan) and the test sample are stirred until homogeneous. […] Controls 1-3 are made by using Toximul 8240 in the amounts indicated instead of the nonionic sample.
Formulations: • 1. Bifenthrin, 240 g/L (2.99 g), Aromatic 100 (ExxonMobil, 8.05 g), Ninate 60E (0.38 g), and nonionic sample or Toximul 8240 (0.58 g). • 2. 2,4-D ester, 480 g/L (8.90 g), Exxsol® D-110 (ExxonMobil, 2.50 g), Ninate 60E (0.36 g), and nonionic sample or Toximul 8240 (0.24 g). • 3. Tebuconazole, 360 g/L (4.45 g), N-methyl-2-pyrrolidone (6.35 g), Ninate 60E (0.48 g), nonionic sample or Toximul 8240 (0.72 g).
as §4, §5

[3] = Emulsion stability testing of nonionic emulsifiers, Hallcomid solvent series; set-up: key: C = creamy; CO = creamy oil; O = oil; GC = gritty cream; NS = no separation; OC = oily cream; conditions: Bifenthrin 240 g/L in Hallcomid M-8-10, 34 ppm water
Procedure: as §1, §2, §3, §4, §5

[4] = Surfactant phase behavior study (cross-polarized microscopy); conditions: room temperature, in deionized water
Procedure: Phase behavior is observed using an Olympus BH-2 cross-polarized microscope at 100-400× and room temperature (20° C. to 22° C.). The inventive monounsaturated alcohol ethoxylates are compared with their saturated analogs.
Samples are prepared by diluting the most concentrated product gradually with deionized water. When the surfactant concentration approaches a phase transition, the concentration is varied at 2-4% intervals to estimate the phase boundary. The actives level reported in Table 4 for each phase boundary is within ±5% of the true boundary.
Samples are loaded between a microscope slide and cover glass and are allowed to equilibrate before observation. Microscopic texture is analyzed and used to determine the phase. For some samples, an AR 2000 rheometer (TA Instruments) is used to measure viscosity at 25° C. to further verify phase behavior.

[5] = Agrichemical solvent analysis: active solubility; conditions: room temperature
Procedure: Solvency strength of potential agrichemical solvents is evaluated by identifying the solubility level of three standard pesticides in the solvent by weight percent: 2,4-D acid, imidacloprid, and tebuconazole. […] The active material is also accurately weighed before addition. Initial amounts of active material are approximately: 2,4-D: 0.3 g; imidacloprid: 0.02 g; tebuconazole: 0.3 g. Solvent and pesticide active are combined, allowed to mix for 1 h at room temperature, and then inspected for the presence of undissolved active material. Additional active material is added in appropriately small increments until it no longer dissolves completely. This mixture is then stirred for 24 h at room temperature, and if the active has completely dissolved, additional active ingredient is added and the mixture is stirred another 24 h at room temperature. The percent solubility is recorded, and performance is compared with that of a standard agricultural solvent.

[6] = 2,4-D diester 480 g/L in Hallcomid M-8-10, 34 ppm water
[7] = 2,4-D diester 480 g/L in Hallcomid M-8-10, 1000 ppm water
[8] = Bifenthrin 240 g/L in Hallcomid M-8-10, 34 ppm water
[9] = Bifenthrin 240 g/L in Hallcomid M-8-10, 1000 ppm water
[10] = Tebuconazole 360 g/L in Hallcomid M-8-10, 34 ppm water
[11] = Tebuconazole 360 g/L in Hallcomid M-8-10, 1000 ppm water
[12] = 2,4-D ester 480 g/L in Exxsol D-110, 34 ppm water
[13] = 2,4-D ester 480 g/L in Exxsol D-110, 1000 ppm water
[14] = Bifenthrin 240 g/L in Aromatic 100, 34 ppm water
[15] = Bifenthrin 240 g/L in Aromatic 100, 1000 ppm water
[16] = Tebuconazole 360 g/L in N-methyl-2-pyrrolidone, 34 ppm water
[17] = Tebuconazole 360 g/L in N-methyl-2-pyrrolidone, 1000 ppm water

Which “1 h separation, amount” value [1, 6] does the source give for `C=CCCCCCCCCOCCOCCOCCOCCOCCO` [A10-10] here?
The value was 5 mL.

What about the “1 h separation, appearance” value [1, 6] of the same molecule?
Its value is “C”.

And the “24 h separation, amount” value [1, 6]?
The value was 9.9 mL.

What about the “24 h separation, appearance” value [1, 6] of the same molecule?
Its value is “C”.

And the “Spon. (spontaneity)” value [1, 6]?
Its value is “F”.

And the “1 h separation, amount” value [1, 7]?
The value was 6 mL.

What about the “1 h separation, appearance” value [1, 7] of the same molecule?
Its value is “C”.

What about the “24 h separation, amount” value [1, 7] of the same molecule?
Its value is 8 mL.

And the “24 h separation, appearance” value [1, 7]?
The value was “C”.

And the “Spon. (spontaneity)” value [1, 7]?
Its value is “F”.

What about the “1 h separation, amount” value [1, 8] of the same molecule?
The value was “NS”.

And the “Spon. (spontaneity)” value [1, 8]?
The value was “G”.

And the “1 h separation, amount” value [1, 9]?
Its value is 6.5 mL.

And the “1 h separation, appearance” value [1, 9]?
The value was “CO”.

What about the “24 h separation, amount” value [1, 9] of the same molecule?
Its value is 4 O, 2 CO.

And the “Spon. (spontaneity)” value [1, 9]?
The value was “F”.

What about the “1 h separation, amount” value [1, 10] of the same molecule?
Its value is 2 mL.

And the “1 h separation, appearance” value [1, 10]?
Its value is “C”.

And the “24 h separation, amount” value [1, 10]?
Its value is 5 mL.

What about the “24 h separation, appearance” value [1, 10] of the same molecule?
The value was “C”.

What about the “Spon. (spontaneity)” value [1, 10] of the same molecule?
Its value is “F”.

What about the “1 h separation, amount” value [1, 11] of the same molecule?
Its value is 3.5 mL.

And the “1 h separation, appearance” value [1, 11]?
Its value is “C”.

And the “24 h separation, amount” value [1, 11]?
The value was 2 CO, 5 C.

And the “Spon. (spontaneity)” value [1, 11]?
The value was “F”.

What about the “1 h separation, amount” value [2, 12] of the same molecule?
Its value is 1.5 mL.

What about the “1 h separation, appearance” value [2, 12] of the same molecule?
Its value is “CO”.

What about the “24 h separation, amount” value [2, 12] of the same molecule?
The value was 4.1 mL.

And the “24 h separation, appearance” value [2, 12]?
Its value is “C”.

What about the “Spon. (spontaneity)” value [2, 12] of the same molecule?
Its value is “F”.

And the “1 h separation, amount” value [2, 13]?
Its value is 4 mL.

What about the “1 h separation, appearance” value [2, 13] of the same molecule?
The value was “CO”.

What about the “24 h separation, amount” value [2, 13] of the same molecule?
The value was 1 O, 4 CO.

What about the “Spon. (spontaneity)” value [2, 13] of the same molecule?
The value was “P”.

What about the “1 h separation, amount” value [2, 14] of the same molecule?
The value was “NS”.

What about the “24 h separation, amount” value [2, 14] of the same molecule?
Its value is 3.5 mL.

What about the “24 h separation, appearance” value [2, 14] of the same molecule?
The value was “C”.

And the “Spon. (spontaneity)” value [2, 14]?
Its value is “F”.

And the “1 h separation, amount” value [2, 15]?
Its value is 3 O, 5 CO.

And the “24 h separation, amount” value [2, 15]?
The value was 4.5 O, 1 CO.

And the “Spon. (spontaneity)” value [2, 15]?
The value was “F”.

What about the “1 h separation, amount” value [2, 16] of the same molecule?
Its value is 2 mL.

What about the “1 h separation, appearance” value [2, 16] of the same molecule?
The value was “CO”.

And the “24 h separation, amount” value [2, 16]?
The value was 2.5 mL.

What about the “24 h separation, appearance” value [2, 16] of the same molecule?
Its value is “CO”.

What about the “Spon. (spontaneity)” value [2, 16] of the same molecule?
Its value is “P”.

And the “1 h separation, amount” value [2, 17]?
Its value is 2.5 mL.

And the “1 h separation, appearance” value [2, 17]?
Its value is “CO”.

What about the “24 h separation, amount” value [2, 17] of the same molecule?
Its value is 3 mL.

What about the “24 h separation, appearance” value [2, 17] of the same molecule?
The value was “CO”.

And the “Spon. (spontaneity)” value [2, 17]?
Its value is “P”.

What about the “24 h separation, amount” value [3] of the same molecule?
The value was “NS”.

What about the “Isotropic Clear phase region” value [4] of the same molecule?
Its value is 0-100 % Actives Level.

What about the “solubility of 2,4-D Acid in the solvent” value [5] of the same molecule?
Its value is 29.8 weight percent.

And the “solubility of Imidacloprid in the solvent” value [5]?
The value was 2.8 weight percent.

What about the “solubility of Tebuconazole in the solvent” value [5] of the same molecule?
The value was 13.0 weight percent.
